Tests used:
[1] = Thermal activity by microcalorimetry; type: physicochemical; conditions: microcalorimeter at 25° C., scanned from about 30% to about 90% relative humidity
Protocol: To confirm that the salbutamol sulphate had been converted to the desired low energy, crystalline form i.e. had been annealed, the thermal activity and the water content of the treated salbutamol sulphate compared to untreated salbutamol sulphate was measured using standard microcalorimetry techniques and moisture sorption techniques respectively. A Hart Scientific Microcalorimeter (model 4400) was operated at 25° C. with a water adsorption unit and scanned from about 30% to about 90% relative humidity over a 11.5 hour period. Thermal equilibration time was 1 to 2 hours.

[2] = Water content by vacuum balance moisture sorption; type: physicochemical; conditions: for water content: typical/normal value stated in description
Protocol: To confirm that the salbutamol sulphate had been converted to the desired low energy, crystalline form i.e. had been annealed, the thermal activity and the water content of the treated salbutamol sulphate compared to untreated salbutamol sulphate was measured using standard microcalorimetry techniques and moisture sorption techniques respectively.
A VTI Corp vacuum balance moisture sorption apparatus (model MB300G) was operated at 25° C., and scanned from about 20% to about 90% relative humidity, total scan time about 15 hours. Drying was accomplished at 35° C. under vacuum for approximately 1 hour before the equilibrium condition used for the scans of 3 micrograms/6 minutes was achieved. This same equilibrium weight change criterion was used for the sorption measurements.

[3] = listed as Particulate salbutamol sulphate

Row | Substance | thermal activity (heat rate) [1] | water content ([2]; listed as annealed salbutamol sulphate) | moisture content (moisture sorption profile, % weight gain against relative humidity) ([2]; 25° C., scanned from about 20% to about 90% relative humidity) | water content [2, 3] [% by weight] | thermal activity (heat rate) [1, 3]
1 | salbutamol sulphate [Example 2] | lack significant thermal activity |  |  |  | 
2 | salbutamol sulphate [treated salbutamol sulphate] | absent | less than 0.4 % by weight |  |  | 
3 | salbutamol sulphate [Example 4] | lacks significant thermal activity |  |  |  | 
4 | salbutamol sulphate [Example 3] | lack significant thermal activity |  |  |  | 
5 | salbutamol sulphate [untreated salbutamol sulphate, reference compound] | exothermic rise in heat rate up to approximately 55% relative humidity followed by a large endothermic response |  | significantly larger moisture content | ≥ 0.5 | significantly greater thermal activity
